Results from patent US20220152051A1, “APPLICATION OF GLYCOCHOLIC ACID IN PREPARATION OF ANTITUMOR DRUGS” (DALIAN UNIVERSITY, priority 2019, published 2022).

How the values were obtained:
[1] = system: 4T1 (mouse breast cancer cells); assay: In-vitro anti-tumor experiment (CCK-8), 4T1 cells; type: cell-based; details: for concentration at the highest point of the inhibition rate: 4T1 cells, highest inhibition rate at 12 h
Description: 3.1 Cells at a logarithmic growth phase are collected, the concentration of the cells is respectively regulated into 5×10^4 cells/ml by the 1640 culture medium and the DMEM culture medium, and 100 μl of cell suspension is added into a 96-well plate. 3.2 After culture is carried out for 24 h at the temperature of 37° C. at 5% CO2, the concentration gradient of glycocholic acid respectively of 0.1 nmol/L, 0.2 nmol/L, 0.4 nmol/L, 0.8 nmol/L, 1.6 nmol/L, 3.2 nmol/L and 6.4 nmol/L is added into 4T1 mouse breast cancer cells, the concentration gradient of glycocholic acid respectively of 0.02 μmol/L, 0.04 μmol/L, 0.08 μmol/L, 0.16 μmol/L, 0.32 μmol/L, 0.64 μmol/L and 1.28 μmol/L is added into MCF-7 cells, the concentration gradient of glycocholic acid respectively of 0.02 μmol/L, 0.04 μmol/L, 0.08 μmol/L, 0.16 μmol/L, 0.33 μmol/L, 0.66 μmol/L and 1.32 μmol/L is added into MDA-MB-468 cells, the concentration gradient of glycocholic acid respectively of 0.02 μmol/L, 0.04 μmol/L, 0.08 μmol/L, 0.16 μmol/L, 0.32 μmol/L, 0.64 μmol/L and 1.28 μmol/L is added into NIH:OVCAR-3 cells, the concentration gradient of glycocholic acid respectively of 0.02 μmol/L, 0.04 μmol/L, 0.08 μmol/L, 0.16 μmol/L, 0.32 μmol/L, 0.64 μmol/L and 1.28 μmol/L is added into RL-95-2 cells, set up five duplicated wells and meanwhile, set up a blank group and a control group. 3.3 Add CCK-8 reagent after 12 h, 24 h, 36 h, 48 h and 60 h, and incubate for 3 h, and after incubation is completed, the absorption value of each well is measured at OD450 nm of the microplate reader. 3.4 An inhibition rate of each concentration of glycocholic acid for tumor cells is obtained by utilizing a formula of 3.1 Cells at a logarithmic growth phase are collected, the concentration of the cells is regulated into 5×10^4 cells/ml by the 1640 culture medium, and 100 μl of cell suspension is added into a 96-well plate. […] 3.3 Add CCK-8 reagent after 12 h, 24 h, 36 h, 48 h and 60 h, incubate for 3 h, and after incubation is completed, the absorption value of each well is measured at OD450 nm of the microplate reader. […]

[2] = system: MCF-7 (human breast cancer cells); assay: In-vitro anti-tumor experiment (CCK-8), MCF-7 cells; type: cell-based
Description: (§1) 3.1 Cells at a logarithmic growth phase are collected, the concentration of the cells is respectively regulated into 5×10^4 cells/ml by the 1640 culture medium and the DMEM culture medium, and 100 μl of cell suspension is added into a 96-well plate. […] 3.3 Add CCK-8 reagent after 12 h, 24 h, 36 h, 48 h and 60 h, and incubate for 3 h, and after incubation is completed, the absorption value of each well is measured at OD450 nm of the microplate reader. […]

[3] = system: MDA-MB-468 (human breast cancer cells); assay: In-vitro anti-tumor experiment (CCK-8), MDA-MB-468 cells; type: cell-based
Description: as §1

[4] = system: NIH:OVCAR-3 (human ovarian cancer cells); assay: In-vitro anti-tumor experiment (CCK-8), NIH:OVCAR-3 cells; type: cell-based
Description: as §1

[5] = system: RL95-2 (human endometrial cancer cells); assay: In-vitro anti-tumor experiment (CCK-8), RL95-2 cells; type: cell-based
Description: as §1

[6] = system: 4T1 mouse breast cancer cells; assay: Tumor inhibition rate by animal model (4T1 tumor-bearing BABL/c mice); type: in vivo; details: 15 mg/kg intragastric twice/day for two weeks, 4T1 tumor in BABL/c mice
Description: 1. Materials: 30 female 10-week-old BABL/c mice purchased from the SPF Experimental Animal Center of the Dalian Medical University; and 4T1 tumor cells purchased from the Shanghai Cell Bank of the Chinese Academy of Sciences. 2.1 Modeling: 4T1 mouse breast cancer cells at a logarithmic growth phase are collected, and the concentration of the cells is adjusted to 2×10^6 cells/ml with PBS; and 0.1 ml of cell suspension is injected under the right armpits of the mice by a sterile syringe. 2.2 Administration: intragastric administration of 15 mg/kg of glycocholic acid is started on the second day after modeling (twice/day), 0.2 mL each time, the equal volume of distilled water is administrated to the control group, and administration is continuously carried out for two weeks. The mice are fasted on the night of the last administration, the mice are sacrificed on the fifteenth day by a cervical dislocation method, tumor tissues under the armpits of the mice are aseptically stripped and weighed, and the tumor inhibition rate is calculated according to a formula of […]

FXR gene expression = assay: Real-time PCR of specific target RNA expression in 4T1 cells; type: cell-based, mouse; details: 0.8 nmol/L, 12 h, vs negative control
Description: 2. Method: RNA of the 4T1 cells intervened by glycocholic acid is extracted, and after reverse transcription, the Real-time RCP is carried out to measure the changes in the RNA expression of the specific target of glycocholic acid.

FXR protein expression = assay: Western blot of specific target protein expression in 4T1 cells; type: cell-based, mouse; details: 0.8 nmol/L, 12 h
Description: 2. After proteins of 4T1 cells intervened by glycocholic acid are extracted, by degeneration treatment, changes in the expression of the related proteins are measured according to the Western blot flow.

[7] = highest inhibition rate at 36 h

Row | IC50 ([1]; 4T1 mouse breast cancer cells, CCK-8, 12 h) [nM] | IC50 ([2]; Homo sapiens, MCF7, CCK-8, 36 h) [nM] | IC50 ([3]; Homo sapiens, CCK-8, 36 h) [nM] | IC50 ([4]; Homo sapiens, CCK-8, 48 h) [nM] | IC50 ([5]; Homo sapiens, CCK-8, 36 h) [nM] | Compound | concentration at the highest point of the inhibition rate [1] [nmol/L] | concentration at the highest point of the inhibition rate [2, 7] [µmol/L] | concentration at the highest point of the inhibition rate [3, 7] [µmol/L] | concentration at the highest point of the inhibition rate ([4]; highest inhibition rate at 48 h) [µmol/L] | concentration at the highest point of the inhibition rate [5, 7] [µmol/L] | average mouse tumor mass ([6]; day 15) [g] | tumor inhibition rate ([6]; vs control group) [%] | expression of related RNA (FXR gene) after intervention (FXR gene expression) [times] | expression of the specific target protein (FXR) in tumor cells (FXR protein expression)
1 | 0.01 to 0.1 | 640 to 1000 | 330 to 660 | 160 to 320 | 320 to 640 | C[C@H](CCC(=O)NCC(=O)O)[C@H]1CC[C@H]2[C@@H]3[C@H](O)C[C@@H]4C[C@H](O)CC[C@]4(C)[C@H]3C[C@H](O)[C@]12C [glycocholic acid] | 0.8 | 1.28 | 1.32 | 1.28 | 1.28 | 0.247 ± 0.08 | 42.83 | 1.5 | increased
2 | – | – | – | – | – | C[C@H](CCC(=O)NCC(=O)[O-])[C@H]1CC[C@H]2[C@@H]3[C@H](O)C[C@@H]4C[C@H](O)CC[C@]4(C)[C@H]3C[C@H](O)[C@]12C.[Na+] [sodium glycocholate] | 0.7 | – | – | – | – | – | – | – | –
